Data reported in patent US20260274904A1, “ANTIMICROBIAL NCR2 PEPTIDES” (Donald Danforth Plant Science Center, priority 2019, published 2026).
Values after ≈ are worked out from the molar mass of the structure shown. “Also recorded” adds a separate entry of the source. Like-named read-outs stand apart in the source and are kept apart here. Where a SMILES comes first, the peptide text is derived from it.

B1: AFIQLSKPCISDKECSIVKNYRARCRKGYCVRRRIRAPKKVEPAFIQLSKPCISDKECSIVKNYRARCRKGYCVRRRIR (protein)
chain: AFIQLSKPCISDKECSIVKNYRARCRKGYCVRRRIRAPKKVEPAFIQLSKPCISDKECSIVKNYRARCRKGYCVRRRIR
notes: two copies of NCR2 linked in tandem by linker peptide APKKVEP (L1)

Key:
[1] = Protein-phospholipid overlay assay (PIP Strips); conditions: protein-lipid overlay, 1 μg/ml peptide, 100 pmol lipid per spot
Procedure: (§2) Briefly, lipid strips were blocked with 10 mL of blocking buffer, PBS-T/3% fat free BSA for 12-16 h at 4° C. with gentle agitation. […] After hybridization, protein solution was discarded and the strips were then washed with PBS-T three times with gentle agitation for 20 minutes each for 1 hour at room temperature. […] The lipid strips were washed with PBS-T two times with gentle agitation, for 15 minutes each wash, at room temperature. HRP-conjugated Mouse Anti-Rabbit IgG secondary antibody (GenScript Cat no A01827) diluted 1:4000 in blocking buffer was added to the lipid strips and incubated for 60 minutes at 4° C. After two washes with PBS-T, chemiluminescence was detected using SuperSignal® West Pico PLUS Sensitivity substrate kit (Thermo Scientific, Cat no: 34080 following the manufacturer's protocol.

F. graminearum = type: cell-based, Fusarium graminearum
[2] = Protein-phospholipid overlay assay (PIP Strips); conditions: protein-lipid overlay, 1 μg/ml peptide, 100 pmol lipid per spot; remark: listed apart in the source
Procedure: as §2

[3] = Protein-phospholipid overlay assay (PIP Strips); conditions: protein-lipid overlay, 1 μg/ml peptide, 100 pmol lipid per spot; remark: listed apart in the source
Procedure: as §2

P. capsici = test: Resazurin cell viability assay; type: cell-based, Phytophthora capsici
Botrytis cinerea [4] = test: Detached lettuce leaf infection assay (in planta antifungal activity); type: in vivo; conditions: detached iceberg lettuce leaves, peptide 3, 6, and 12 μM drop inoculated, 48 hours
[5] = test system: Fusarium graminearum PH-1; type: cell-based; conditions: F. graminearum, absorbance at 595 nm at 48 hours
Botrytis cinerea [6] = conditions: for antifungal activity compared with the antifungal activity of NCR2 monomer: against B. cinerea
[7] = Protein-phospholipid overlay assay (PIP Strips), overall; conditions: protein-lipid overlay, 1 μg/ml peptide, 100 pmol lipid per spot
Procedure: as §2

[8] = Protein-phospholipid overlay assay (PIP Strips); conditions: protein-lipid overlay, 1 μg/ml peptide, 100 pmol lipid per spot; remark: listed apart in the source
Procedure: as §2

F. virguliforme [9] = test system: F. virguliforme
F. virguliforme [10] = test: Resazurin cell viability assay; type: cell-based, Fusarium virguliforme
Procedure: (§1) The antifungal and anti-oomycete activity was conducted as described previously (Spelbrink et al. 2004; Sagaram et al. 2011; Velivelli et al. 2018) with minor modifications. The antifungal and anti-oomycete activity of NCR peptides were determined in an in vitro assay using 96-well microtiter plates. Fifty microliters of each protein dilution (0, 0.1, 0.3, 0.7, 1.5, 3 and 6 μM) was added to each well of the microtiter plate containing 50 μL of (zoo)spore suspension prepared in 2×SFM at a final concentration of 10^5 (zoo)spores/ml. The plates were incubated at room temperature and the quantitative fungal growth inhibition was estimated by measuring the absorbance at 595 nm using a Tecan Infinite M200 Pro (Tecan Systems Inc., San Jose, CA) microplate reader at 48 hours. The fungal/oomycete cell viability/cell killing was determined by the resazurin cell viability assay. After incubation at 48 hours, 10 μl of 0.1% resazurin solution was added to each well and re-incubated overnight. A change from blue to pink color indicates reduction of resazurin and cell viability.

F. oxysporum [11] = test system: F. oxysporum
[12] = Protein-phospholipid overlay assay (PIP Strips); conditions: protein-lipid overlay, 1 μg/ml peptide, 100 pmol lipid per spot; remark: listed apart in the source
Procedure: as §2

[13] = Protein-phospholipid overlay assay (PIP Strips); conditions: protein-lipid overlay, 1 μg/ml peptide, 100 pmol lipid per spot; remark: listed apart in the source
Procedure: as §2

[14] = test system: Phytophthora capsici LT263
F. oxysporum [15] = test: Resazurin cell viability assay; type: cell-based, Fusarium oxysporum
Procedure: as §1

[16] = Protein-phospholipid overlay assay (PIP Strips); conditions: protein-lipid overlay, 1 μg/ml peptide, 100 pmol lipid per spot; remark: listed apart in the source
Procedure: as §2

[17] = Protein-phospholipid overlay assay (PIP Strips); conditions: protein-lipid overlay, 1 μg/ml peptide, 100 pmol lipid per spot; remark: listed apart in the source
Procedure: as §2

Fusarium species = type: cell-based, Fusarium sp.; conditions: against F. oxysporum, F. graminearum and F. virguliforme
[18] = B. cinerea, absorbance at 595 nm at 48 hours
[19] = P. capsici zoospores, absorbance at 595 nm at 48 hours

Molecule	binding to PI(4)P [1]	binding to PI(3,4)P2 [2]	binding to phosphatidic acid (PA) [3]	concentration of cell death (resazurin assay) (P. capsici) [µM]	size of disease lesions caused by Botrytis cinerea (Botrytis cinerea [4])	IC50 [5] [nM]	IC50 (Botrytis cinerea [6]; 48 h) [nM]	MIC (Botrytis cinerea [6]; 48 h) [µM]	binding to phospholipids (overall) [7]	binding to PI(5)P [8]	binding to PI(3)P [12]	binding to PI(4,5)P2 [13]	IC50 ([14]; 48 h) [nM]	MIC ([14]; 48 h) [µM]	binding to PI(3,5)P2 [16]	binding to PI(3,4,5)P3 [17]	MIC [5] [µM]	IC50 (Botrytis cinerea [6]; [18]) [nM]	MIC (Botrytis cinerea [6]; [18]) [µM]	antifungal activity compared with the antifungal activity of NCR2 monomer (Botrytis cinerea [6])	also measured
CC[C@H](C)[C@H](NC(=O)[C@H](CCCNC(=N)N)NC(=O)[C@H](CCCNC(=N)N)NC(=O)[C@H](CCCNC(=N)N)NC(=O)[C@@H](NC(=O)[C@H](CS)NC(=O)[C@H](Cc1ccc(O)cc1)NC(=O)CNC(=O)[C@H](CCCCN)NC(=O)[C@H](CCCNC(=N)N)NC(=O)[C@H](CS)NC(=O)[C@H](CCCNC(=N)N)NC(=O)[C@H](C)NC(=O)[C@H](CCCNC(=N)N)NC(=O)[C@H](Cc1ccc(O)cc1)NC(=O)[C@H](CC(N)=O)NC(=O)[C@H](CCCCN)NC(=O)[C@@H](NC(=O)[C@@H](NC(=O)[C@H](CO)NC(=O)[C@H](CS)NC(=O)[C@H](CCC(=O)O)NC(=O)[C@H](CCCCN)NC(=O)[C@H](CC(=O)O)NC(=O)[C@H](CO)NC(=O)[C@@H](NC(=O)[C@H](CS)NC(=O)[C@@H]1CCCN1C(=O)[C@H](CCCCN)NC(=O)[C@H](CO)NC(=O)[C@H](CC(C)C)NC(=O)[C@H](CCC(N)=O)NC(=O)[C@@H](NC(=O)[C@H](Cc1ccccc1)NC(=O)[C@H](C)N)[C@@H](C)CC)[C@@H](C)CC)[C@@H](C)CC)C(C)C)C(C)C)C(=O)N[C@@H](CCCNC(=N)N)C(=O)O [NCR2] (H-AFIQLSKPCISDKECSIVKNYRARCRKGYCVRRRIR-OH; N-terminus and C-terminus assumed)	bound weakly	bound weakly	bound weakly	3	smaller lesions compared to no peptide control	1500 to 2000	1500	2 to 3	bind to multiple phospholipids	bound weakly	bound weakly	bound weakly	2000	3 (≈ 13 µg/mL)	strongly binds	bound weakly					concentration at which cells were killed (resazurin assay) (F. graminearum): 3 µM; MIC (F. virguliforme [9]; 48 h): 3 µM (≈ 13 µg/mL); concentration at which cells were killed (resazurin assay) (F. virguliforme [10]): 3 µM; IC50 (F. oxysporum [11]; 48 h): 500 nM; concentration at which cells were killed (resazurin assay) (F. oxysporum [15]): 1.5 µM
CC[C@H](C)[C@H](NC(=O)[C@H](CCCNC(=N)N)NC(=O)[C@H](CCCNC(=N)N)NC(=O)[C@H](CCCNC(=N)N)NC(=O)[C@@H](NC(=O)[C@H](CS)NC(=O)[C@H](Cc1ccc(O)cc1)NC(=O)CNC(=O)[C@H](CCCCN)NC(=O)[C@H](CCCNC(=N)N)NC(=O)[C@H](CS)NC(=O)[C@H](CCCNC(=N)N)NC(=O)[C@H](C)NC(=O)[C@H](CCCNC(=N)N)NC(=O)[C@H](Cc1ccc(O)cc1)NC(=O)[C@H](CC(N)=O)NC(=O)[C@H](CCCCN)NC(=O)[C@@H](NC(=O)[C@@H](NC(=O)[C@H](CO)NC(=O)[C@H](CS)NC(=O)[C@@H]1CCCN1C(=O)CNC(=O)[C@H](CCCCN)NC(=O)[C@H](Cc1ccccc1)NC(=O)[C@H](CCCCN)NC(=O)[C@H](Cc1c[nH]cn1)NC(=O)[C@H](CS)NC(=O)[C@@H]1CCCN1C(=O)[C@H](CCCCN)NC(=O)[C@H](CO)NC(=O)[C@H](CC(C)C)NC(=O)[C@H](CCC(N)=O)NC(=O)[C@@H](NC(=O)[C@H](Cc1ccccc1)NC(=O)[C@H](C)N)[C@@H](C)CC)[C@@H](C)CC)C(C)C)C(C)C)C(=O)N[C@@H](CCCNC(=N)N)C(=O)O [NCR2_V1] (H-AFIQLSKPCHKFKGPCSIVKNYRARCRKGYCVRRRIR-OH)	bound tightly; also recorded: greater affinity than the wild-type NCR2 peptide	weakly	weakly	3	much smaller lesions; also recorded: effective in reducing the size of disease lesions		1500	2 to 3	bind to multiple phospholipids	bound tightly; also recorded: greater affinity than the wild-type NCR2 peptide	bound tightly; also recorded: greater affinity than the wild-type NCR2 peptide	weakly	2000	3 (≈ 13.3 µg/mL)	weakly	No binding					size of disease lesions caused by Botrytis cinerea (Botrytis cinerea [4]; listed as NCR2 V1): effective in reducing the sizes of disease lesions
CC[C@H](C)[C@H](NC(=O)[C@H](CCCNC(=N)N)NC(=O)[C@H](CCCNC(=N)N)NC(=O)[C@H](CCCNC(=N)N)NC(=O)[C@@H](NC(=O)[C@H](CS)NC(=O)[C@H](Cc1ccc(O)cc1)NC(=O)CNC(=O)[C@H](CCCCN)NC(=O)[C@H](CCCNC(=N)N)NC(=O)[C@H](CS)NC(=O)[C@H](CCCNC(=N)N)NC(=O)[C@H](C)NC(=O)[C@H](CCCNC(=N)N)NC(=O)[C@H](Cc1ccc(O)cc1)NC(=O)[C@H](CC(N)=O)NC(=O)[C@H](CCCCN)NC(=O)[C@@H](NC(=O)[C@@H](NC(=O)[C@H](CO)NC(=O)[C@H](CS)NC(=O)[C@H](CCC(=O)O)NC(=O)[C@H](CCCCN)NC(=O)[C@H](CC(=O)O)NC(=O)[C@H](CO)NC(=O)[C@@H](NC(=O)[C@H](CS)NC(=O)[C@@H]1CCCN1C(=O)[C@H](CCCCN)NC(=O)[C@H](CO)NC(=O)[C@H](CC(C)C)NC(=O)[C@H](CCC(N)=O)NC(=O)[C@@H](NC(=O)[C@H](CS)NC(=O)[C@H](Cc1ccccc1)NC(=O)[C@H](C)N)[C@@H](C)CC)[C@@H](C)CC)[C@@H](C)CC)C(C)C)C(C)C)C(=O)N[C@@H](CCCNC(=N)N)C(=O)N[C@@H](CS)C(=O)O [NCR2_V2] (H-AFCIQLSKPCISDKECSIVKNYRARCRKGYCVRRRIRC-OH; N-terminus and C-terminus assumed)				6	much smaller lesions; also recorded: effective in reducing the sizes of disease lesions		2000	3 (≈ 13.6 µg/mL)	not found to bind to any phospholipids; also recorded: does not bind to any Phospholipids				3000	6 (≈ 27.1 µg/mL)							binding to phospholipids (overall) ([7]; listed as NCR2 V2): does not bind to any phospholipids
AFIQLSKPCISDKECSIVKNYRARCRKGYCVRRRIRGGKAGKKAPKAFIQLSKPCISDKECSIVKNYRARCRKGYCVRRRIR [NCR2-L2-NCR2]						1000											1.5	750	1.5	significant increase	MIC (F. virguliforme [9]): 1.5 µM; increase in the antifungal activity of dimer compared with the monomer (Fusarium species): Two-fold increase; IC50 (F. oxysporum [11]): 300 nM; MIC (F. oxysporum [11]): 0.75 µM
B1				3		1000											1.5	750	1.5	significant increase	MIC (F. virguliforme [9]): 1.5 µM; increase in the antifungal activity of dimer compared with the monomer (Fusarium species): Two-fold increase; IC50 (F. oxysporum [11]): 300 nM; MIC (F. oxysporum [11]): 0.75 µM; IC50 [14, 19]: 2000 nM; MIC [14, 19]: 3 µM
